Measurements as given in US20250120975A1, “INTEGRIN INHIBITORS FOR TREATMENT OF PRIMARY SCLEROSING CHOLANGITIS” (Pliant Therapeutics, Inc., priority 2023, published 2025).

Assays:
[1] = tested on: BALB/c.Mdr2−/− mouse model of biliary fibrosis; experiment: Liver and kidney biochemistries in serum (ALT, ALP, total bilirubin); type: in vivo; conditions: 6 weeks
Description: (§1) The tissue source is BALBc.Mdr2-/−male mice that were 6 weeks old. The Mdr2(abcb4)−/− mouse model of sclerosing cholangitis has been previously described and is a model of spontaneously progressive hepatic fibrosis in mice with deletion of the biliary phospholipid flippase on fibrosis-susceptible background (Mdr2(abcb4)^−/−. BALB/c mouse). See N. Ikenaga, et al. (2015) Am J Pathol. 185 (2): 325-334, the entire contents of which are hereby incorporated by reference in their entirety.
(§2) (S)-4-((2-methoxyethyl)(4-(5,6,7,8-tetrahydro-1,8-naphthyridin-2-yl)butyl)amino)-2-(quinazolin-4-ylamino)butanoic acid (or PBS) was dosed once daily orally at 100 mg/kg, 300 mg/kg or 1000 mg/kg (see Table B-2) starting at 6 weeks after birth of the subject and continuing for 6 weeks. All animals were euthanized and necropsied at the end of week 12.
Determination of ALT, ALP, and total bilirubin was performed as conventional liver and kidney function tests at the clinical biochemistry core (BIDMC).

[2] = tested on: pSMAD3; experiment: pSMAD3/SMAD3 MSD assay in mouse liver tissue; type: in vivo; conditions: all doses (100, 300, 1000 mg/kg), 6 weeks
Description: as §1, §2
Mouse liver tissues were lysed with RIPA buffer with protease inhibitor cocktail. Total protein concentration was determined by Micro BCA kit. MSD GOLD™ 96 Sm Spot SA Plate was washed three times with 150 μL of PBST and 1 μg/mL of biotinylated anti-SMAD2/3 was added to the plate, 25 μL per well (60 Min incubation under agitation). The plate was washed as before and 12.5 μL of unknown samples plus 12.5 μL of PBST were added in duplicates. […] After wash, 150 μL of 1× read buffer was added and the plate was read using an MSD Sector Imager instrument.

[3] = tested on: subjects with PSC and suspected liver fibrosis; experiment: Phase 2a INTEGRIS-PSC: PRO-C3 (collagen synthesis); type: in vivo, human
Description: In Parts 1 and 2, plasma, serum, and urine biomarker samples were obtained at predetermined times as indicated in the Schedule of Events (see Table B-4). In Part 3, plasma and serum biomarker samples were obtained at predetermined times as indicated in the Schedule of Events (see Table B-5 and Table B-6). These samples were used to measure specific proteins, nucleotides and/or metabolites that were elevated in subjects with fibrosis, and/or pharmacodynamic markers that could change with inhibition of integrins αVβ6 and αVβ1. The samples were also used to perform exploratory investigations using metabolomic or proteomic methods for use in future studies in subjects with fibrotic diseases.
(§3) Absolute and relative changes from Baseline in liver fibrosis biomarkers (including PRO-C3 and ELF) and in ALP are presented in numerical and graphical forms by treatment and dose utilizing data from the timepoints specified in the Schedule of Events. Changes from Baseline to Week 12(Parts 1 and 2) and Week 24 (Part 3) in magnetic resonance (MR)-based liver imaging are also evaluated, as well as changes in PROs.

[4] = tested on: subjects with PSC and suspected liver fibrosis; experiment: Phase 2a INTEGRIS-PSC: gadoxetate contrast MRI of the liver; type: in vivo, human; conditions: for MRI relative enhancement (gadoxetate) / time to arrival to the common bile duct (gadoxetate): Example B-5
Experimental: Imaging of the whole liver was performed by MRI prior to Baseline and at Week 12 (Parts 1 and 2) and will be performed at Baseline, at Week 12, and at Week 24 (Part 3 only), and will be read centrally utilizing dynamic liver imaging in combination with the contrast agent Gadoxetate disodium and a 4-hour fast (no food or drink, except water). Any clinically significant incidental findings are evaluated as potential AEs.
as §3

[5] = all doses, Week 12, MRI sub-study, Example B-4

**Q.** What does the source list for `COCCN(CCCCc1ccc2c(n1)NCCC2)CC[C@H](Nc1ncnc2ccccc12)C(=O)O` [Bexotegrast, (S)-4-((2-methoxyethyl)(4-(5,6,7,8-tetrahydro-1,8-naphthyridin-2-yl)butyl)amino)-2-(quinazolin-4-ylamino)butanoic acid]?
**A.** serum alkaline phosphatase levels ([1]; 1000 mg/kg, vs vehicle): significantly decreased; serum ALT levels ([1]; 100, 300, 1000 mg/kg): did not change; serum total bilirubin levels ([1]; 100, 300, 1000 mg/kg): dose dependent trend down; pSMAD3 levels in liver [2]: decreased; PRO-C3, difference to placebo ([3]; 40 mg (p<0.01) and 160 mg (p<0.05), Week 12, Example B-3): statistically significant differences from placebo; PRO-C3 levels relative to placebo ([3]; 320 mg, Week 12, Example B-4): reduction; collagen synthesis (PRO-C3) relative to placebo ([3]; all doses (40, 80, 160 mg), Week 12, Example B-3): reduced; PRO-C3 relative to the placebo ([3]; all doses, statistical significance at Week 12 for 40 mg, 160 mg and pooled groups, Example B-4): reduced; MRI relative enhancement (gadoxetate) ([4]; 320 mg, Week 12, MRI sub-study): increased relative enhancement; time to arrival to the common bile duct (gadoxetate) ([4]; 320 mg, Week 12, MRI sub-study): decreased time to arrival; MRI imaging: hepatocyte function and bile flow relative to placebo ([4]; 320 mg, Week 12, Example B-4): evidence of improved hepatocyte function and bile flow; MRI relative enhancement (gadoxetate) ([4]; 320 mg, Week 24, MRI sub-study): further increase in relative enhancement; time to arrival to the common bile duct (gadoxetate) ([4]; 320 mg, Week 24, MRI sub-study): faster time to arrival; change in Gadoxetate time of arrival in bile duct ([4]; all doses compared to placebo, Week 12, Example B-3): shorter; MRI relative enhancement in whole liver (gadoxetate) ([4]; all doses, Baseline to Week 12, compared to a reduction in placebo, Example B-3): improvement in relative enhancement; Gadoxetate relative enhancement (RE) compared to the placebo [4, 5]: increase; Gadoxetate time of arrival to the common bile duct compared to the placebo [4, 5]: reduced
